Measured values taken from patent publication US20260217767A1, “NOVEL A4B7 THIOETHER PEPTIDE DIMER ANTAGONISTS” (Protagonist Therapeutics, Inc., priority 2014, published 2026).
pIC50: −log10 of the molar value. *1 amine or outer side, *2 acyl side, *3 side chain or, on linkers, in order; H or OH if unused. Where a SMILES comes first, the peptide text is derived from it. Bridges are numbered along the chain shown (N, C = ends). Roman numbers before positions name the chains, in order. [ ]: non-standard residue; d: D form. Phe(4-tBu) = CC(C)(C)c1ccc(C[C@H](N)C(=O)O)cc1; Bip = N[C@@H](Cc1ccc(-c2ccccc2)cc1)C(=O)O; 1Nal = N[C@@H](Cc1cccc2ccccc12)C(=O)O; Diglycolyl = O=C(COCC(=O)[*:2])[*:1]; NMeR = CN[C@@H](CCCNC(=N)N)C(=O)O; β3hE = N[C@@H](CCC(=O)O)CC(=O)O; X1 = O=C(c1ccccc1C[*:2])[*:1]; Pen = CC(C)(S)[C@H](N)C(=O)O

Each compound was assayed against T1, RPMI 8866 cells (Homo sapiens, UniProt P13612+P26010) (assay: α4β7-MAdCAM Cell Adhesion Assay). Details: thioether monomer peptides, Table 6; read-out: Cell-Adhesion A4B7.
T1 sequence (P13612 34-1032): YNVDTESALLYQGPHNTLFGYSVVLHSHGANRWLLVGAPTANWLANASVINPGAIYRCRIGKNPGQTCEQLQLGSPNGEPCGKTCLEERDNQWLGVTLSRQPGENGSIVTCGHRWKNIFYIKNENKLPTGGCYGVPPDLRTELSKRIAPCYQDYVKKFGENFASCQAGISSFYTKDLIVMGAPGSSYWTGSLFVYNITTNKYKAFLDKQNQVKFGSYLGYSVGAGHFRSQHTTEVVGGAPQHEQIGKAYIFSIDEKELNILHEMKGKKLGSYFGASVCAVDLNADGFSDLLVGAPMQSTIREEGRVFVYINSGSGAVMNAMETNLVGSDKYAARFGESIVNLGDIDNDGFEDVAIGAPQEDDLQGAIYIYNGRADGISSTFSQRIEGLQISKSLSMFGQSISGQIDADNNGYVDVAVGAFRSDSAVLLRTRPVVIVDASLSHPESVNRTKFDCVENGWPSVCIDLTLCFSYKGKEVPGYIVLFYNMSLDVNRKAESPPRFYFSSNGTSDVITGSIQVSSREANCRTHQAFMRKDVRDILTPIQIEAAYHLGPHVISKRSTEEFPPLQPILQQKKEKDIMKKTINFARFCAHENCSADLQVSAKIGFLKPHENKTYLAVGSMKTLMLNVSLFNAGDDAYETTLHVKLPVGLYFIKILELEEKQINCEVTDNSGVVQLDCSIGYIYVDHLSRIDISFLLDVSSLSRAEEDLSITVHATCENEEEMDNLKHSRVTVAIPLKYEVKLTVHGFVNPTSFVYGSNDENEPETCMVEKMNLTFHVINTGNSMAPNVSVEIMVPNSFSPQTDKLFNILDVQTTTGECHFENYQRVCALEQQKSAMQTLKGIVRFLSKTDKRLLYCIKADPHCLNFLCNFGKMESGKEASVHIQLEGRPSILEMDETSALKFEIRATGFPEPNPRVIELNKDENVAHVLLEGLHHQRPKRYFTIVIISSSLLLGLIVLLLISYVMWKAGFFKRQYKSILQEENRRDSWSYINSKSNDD
T1 sequence (P26010 20-798): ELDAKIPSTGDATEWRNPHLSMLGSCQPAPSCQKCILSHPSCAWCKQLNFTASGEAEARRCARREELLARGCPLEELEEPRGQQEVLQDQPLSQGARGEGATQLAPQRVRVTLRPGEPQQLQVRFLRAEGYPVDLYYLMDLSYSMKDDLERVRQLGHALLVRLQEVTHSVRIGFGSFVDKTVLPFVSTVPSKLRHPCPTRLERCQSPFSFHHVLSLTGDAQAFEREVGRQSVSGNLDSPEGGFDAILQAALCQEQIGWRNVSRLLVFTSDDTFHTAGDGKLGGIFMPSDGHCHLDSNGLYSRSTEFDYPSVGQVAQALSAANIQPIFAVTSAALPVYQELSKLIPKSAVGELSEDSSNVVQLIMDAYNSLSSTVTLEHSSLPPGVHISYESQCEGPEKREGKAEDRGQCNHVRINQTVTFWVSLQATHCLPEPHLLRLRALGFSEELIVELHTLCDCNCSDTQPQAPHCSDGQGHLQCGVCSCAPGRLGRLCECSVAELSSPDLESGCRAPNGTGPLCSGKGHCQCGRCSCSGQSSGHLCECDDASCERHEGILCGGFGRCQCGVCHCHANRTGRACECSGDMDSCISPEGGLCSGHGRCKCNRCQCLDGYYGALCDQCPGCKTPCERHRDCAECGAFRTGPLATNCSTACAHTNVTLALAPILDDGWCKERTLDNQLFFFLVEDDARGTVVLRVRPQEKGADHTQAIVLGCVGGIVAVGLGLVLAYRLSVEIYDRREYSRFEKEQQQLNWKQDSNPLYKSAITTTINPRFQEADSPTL
Type: cell-based
Procedure, shortened: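 RPMI 8866 cells (200,000/well) in DMEM with 1 mM MnCl2 and 0.1% BSA were allowed to adhere 30-45 min at 37° C to plates coated with rh MAdCAM-1/Fc (200 ng/well) in presence of serially diluted peptide. After washing, bound cells quantified by MTT, absorbance 570 nm, cell-free background subtracted.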

CC(=O)NCCCC[C@@H](NC(=O)[C@@H](CCC(=O)O)NC(=O)[C@H](Cc1c[nH]c2ccccc12)NC(=O)[C@H]1NC(=O)[C@H](CC(C)C)NC(=O)[C@H]([C@@H](C)O)NC(=O)[C@H](CC(=O)O)NC(=O)[C@H](CO)NC(=O)[C@H](CCCNC(=N)N)N(C)C(=O)c2ccccc2CSC1(C)C)C(N)=O [compound 81] (HELM PEPTIDE1{[meR].S.D.T.L.[Pen].W.[dE].[dK].[am]}|PEPTIDE2{[ac]}|CHEM1{[O=C(c1ccccc1C[*:2])[*:1]]}$PEPTIDE1,PEPTIDE2,9:R3-1:R2|PEPTIDE1,CHEM1,1:R1-1:R1|PEPTIDE1,CHEM1,6:R3-1:R2$$$V2.0) and CC(=O)NCCCC[C@@H](NC(=O)[C@H](CCC(=O)O)NC(=O)[C@H](Cc1c[nH]c2ccccc12)NC(=O)[C@H]1NC(=O)[C@H](CC(C)C)NC(=O)[C@H]([C@@H](C)O)NC(=O)[C@H](CC(=O)O)NC(=O)[C@H](CO)NC(=O)[C@H](CCCNC(=N)N)N(C)C(=O)c2ccccc2CSC1(C)C)C(N)=O [compound 80] (HELM PEPTIDE1{[meR].S.D.T.L.[Pen].W.E.[dK].[am]}|PEPTIDE2{[ac]}|CHEM1{[O=C(c1ccccc1C[*:2])[*:1]]}$PEPTIDE1,PEPTIDE2,9:R3-1:R2|PEPTIDE1,CHEM1,1:R1-1:R1|PEPTIDE1,CHEM1,6:R3-1:R2$$$V2.0) fall in the same range of pIC50: 7.00 to 7.60 for the first, 7.00 to 7.60 for the second.

CC(C)C[C@@H]1NC(=O)[C@H]([C@@H](C)O)NC(=O)[C@H](CC(=O)O)NC(=O)[C@H](CO)NC(=O)[C@H](CCCNC(=N)N)N(C)C(=O)c2ccccc2CSC(C)(C)[C@@H](C(=O)N[C@@H](Cc2c[nH]c3ccccc23)C(=O)N[C@H](CCC(=O)O)C(=O)N[C@H](CO)C(N)=O)NC1=O [compound 106] (HELM PEPTIDE1{[meR].S.D.T.L.[Pen].W.[dE].[dS].[am]}|CHEM1{[O=C(c1ccccc1C[*:2])[*:1]]}$PEPTIDE1,CHEM1,1:R1-1:R1|PEPTIDE1,CHEM1,6:R3-1:R2$$$V2.0) and CC(C)C[C@@H]1NC(=O)[C@H]([C@@H](C)O)NC(=O)[C@H](CC(=O)O)NC(=O)[C@H](CO)NC(=O)[C@H](CCCNC(=N)N)N(C)C(=O)c2ccccc2CSC(C)(C)[C@@H](C(=O)N[C@@H](Cc2c[nH]c3ccccc23)C(=O)N[C@@H](CCC(=O)O)C(=O)N[C@@H](CN)C(N)=O)NC1=O [compound 92] (HELM PEPTIDE1{[meR].S.D.T.L.[Pen].W.E.[NC[C@H](N[*:1])C(=O)[*:2]].[am]}|CHEM1{[O=C(c1ccccc1C[*:2])[*:1]]}$PEPTIDE1,CHEM1,1:R1-1:R1|PEPTIDE1,CHEM1,6:R3-1:R2$$$V2.0) fall in the same range of pIC50: 7.00 to 7.60 for the first, 7.00 to 7.60 for the second.

First: CC(C)C[C@@H]1NC(=O)[C@H]([C@@H](C)O)NC(=O)[C@H](CC(=O)O)NC(=O)[C@H](CO)NC(=O)[C@H](CCCNC(=N)N)N(C)C(=O)c2ccccc2CSC(C)(C)[C@@H](C(=O)N[C@@H](Cc2c[nH]c3ccccc23)C(=O)N[C@H](CCC(=O)O)C(=O)N[C@@H](CCN)C(N)=O)NC1=O [compound 95] (HELM PEPTIDE1{[meR].S.D.T.L.[Pen].W.[dE].[Dab].[am]}|CHEM1{[O=C(c1ccccc1C[*:2])[*:1]]}$PEPTIDE1,CHEM1,1:R1-1:R1|PEPTIDE1,CHEM1,6:R3-1:R2$$$V2.0)
Second: CC(C)C[C@@H]1NC(=O)[C@H]([C@@H](C)O)NC(=O)[C@H](CC(=O)O)NC(=O)[C@H](CO)NC(=O)[C@H](CCCNC(=N)N)N(C)C(=O)c2ccccc2CSC(C)(C)[C@@H](C(=O)N[C@@H](Cc2c[nH]c3ccccc23)C(=O)N[C@H](CCC(=O)O)C(=O)N[C@@H](Cc2c[nH]cn2)C(N)=O)NC1=O [compound 102] (HELM PEPTIDE1{[meR].S.D.T.L.[Pen].W.[dE].H.[am]}|CHEM1{[O=C(c1ccccc1C[*:2])[*:1]]}$PEPTIDE1,CHEM1,1:R1-1:R1|PEPTIDE1,CHEM1,6:R3-1:R2$$$V2.0)
The pIC50 of the first is lower: 6.00 to 7.00 for the first, 7.00 to 7.60 for the second.

Compared with CC(C)C[C@@H]1NC(=O)[C@H]([C@@H](C)O)NC(=O)[C@H](CC(=O)O)NC(=O)[C@H](CO)NC(=O)[C@H](CCCNC(=N)N)N(C)C(=O)c2ccccc2CSC(C)(C)[C@@H](C(=O)N[C@@H](Cc2c[nH]c3ccccc23)C(=O)N[C@H](CCC(=O)O)C(=O)N[C@H](Cc2ccc(O)cc2)C(N)=O)NC1=O [compound 110] (HELM PEPTIDE1{[meR].S.D.T.L.[Pen].W.[dE].[dY].[am]}|CHEM1{[O=C(c1ccccc1C[*:2])[*:1]]}$PEPTIDE1,CHEM1,1:R1-1:R1|PEPTIDE1,CHEM1,6:R3-1:R2$$$V2.0), CC(C)C[C@@H]1NC(=O)[C@H]([C@@H](C)O)NC(=O)[C@H](CC(=O)O)NC(=O)[C@H](CO)NC(=O)[C@H](CCCNC(=N)N)N(C)C(=O)c2ccccc2CSC(C)(C)[C@@H](C(=O)N[C@@H](Cc2ccc(-c3ccccc3)cc2)C(=O)N[C@@H](CCC(=O)O)CC(N)=O)NC1=O [compound 133] ([NMeR]SDTL[Pen][Bip][β3hE]-NH2; linker N-6 via X1) is higher in pIC50: 7.00 to 7.60 for the first, over 7.60 for the second. The second is the more potent here.

In the case of CC(C)C[C@@H]1NC(=O)[C@H]([C@@H](C)O)NC(=O)[C@H](CC(=O)O)NC(=O)[C@H](CO)NC(=O)[C@H](CCCNC(=N)N)N(C)C(=O)c2ccccc2CSC(C)(C)[C@@H](C(=O)N[C@@H](Cc2ccc(C(C)(C)C)cc2)C(=O)N[C@@H](CCC(=O)O)CC(N)=O)NC1=O [compound 134] ([NMeR]SDTL[Pen][Phe(4-tBu)][β3hE]-NH2; linker N-6 via X1), the pIC50 was over 7.60.

Same assay, conditions: thioether peptide dimers, Table 7; read-out: Cell-Adhesion A4B7

CC(C)C[C@@H]1NC(=O)[C@H]([C@@H](C)O)NC(=O)[C@H](CC(=O)O)NC(=O)[C@H](CO)NC(=O)[C@H](CCCNC(=N)N)N(C)C(=O)c2ccccc2CSC(C)(C)[C@@H](C(=O)N[C@@H](Cc2cccc3ccccc23)C(=O)N[C@H](CCC(=O)O)C(=O)N[C@H](CCCCNC(=O)COCC(=O)NCCCC[C@@H](NC(=O)[C@@H](CCC(=O)O)NC(=O)[C@H](Cc2cccc3ccccc23)NC(=O)[C@H]2NC(=O)[C@H](CC(C)C)NC(=O)[C@H]([C@@H](C)O)NC(=O)[C@H](CC(=O)O)NC(=O)[C@H](CO)NC(=O)[C@H](CCCNC(=N)N)N(C)C(=O)c3ccccc3CSC2(C)C)C(N)=O)C(N)=O)NC1=O [compound 158] (I: [NMeR]SDTL[Pen][1Nal][dE][dK]-NH2 / II: [NMeR]SDTL[Pen][1Nal][dE][dK]-NH2; linker I:9-II:9 via Diglycolyl; linker I:N-I:6, II:N-II:6 via X1) and CC(C)C[C@@H]1NC(=O)[C@H]([C@@H](C)O)NC(=O)[C@H](CC(=O)O)NC(=O)[C@H](CO)NC(=O)[C@H](CCCNC(=N)N)N(C)C(=O)c2ccccc2CSC(C)(C)[C@@H](C(=O)N[C@@H](Cc2ccccc2)C(=O)N[C@H](CCC(=O)O)C(=O)N[C@H](CCCCNC(=O)COCC(=O)NCCCC[C@@H](NC(=O)[C@@H](CCC(=O)O)NC(=O)[C@H](Cc2ccccc2)NC(=O)[C@H]2NC(=O)[C@H](CC(C)C)NC(=O)[C@H]([C@@H](C)O)NC(=O)[C@H](CC(=O)O)NC(=O)[C@H](CO)NC(=O)[C@H](CCCNC(=N)N)N(C)C(=O)c3ccccc3CSC2(C)C)C(=O)O)C(=O)O)NC1=O [compound 204] (I: [NMeR]SDTL[Pen]F[dE][dK]-OH / II: [NMeR]SDTL[Pen]F[dE][dK]-OH; linker I:9-II:9 via Diglycolyl; linker I:N-I:6, II:N-II:6 via X1) cannot be ordered by pIC50: over 7.60 for the first, over 7.60 for the second.
